Format in all cases: functional
The subject of assay [1] is Mus musculus. Put plainly: Antimalarial activity was evaluated against Plasmodium vinckei V52 after intraperitoneal administration at dose 30 mg/kg.
Assay [2] relates to Mus musculus. Description: Antimalarial activity was evaluated against Plasmodium vinckei V52 after intraperitoneal administration at dose 60 mg/kg.
For assay [3], the system named is Mus musculus. Description: Antimalarial activity was evaluated against Plasmodium vinckei vinckei V52 after intraperitoneal administration at dose 10 mg/kg.
The test system of assay [4] is Mus musculus. Put plainly: Antimalarial activity was evaluated against Plasmodium vinckei vinckei V52 after intraperitoneal administration at dose 50 mg/kg.
Assay [5] concerns Mus musculus. Description: Increase in mean survival days was determined in mice after ip administration of 50 mg/kg. Particulars: route intraperitoneal.
Assay [6] deals with Mus musculus. Put plainly: Increase in mean survival days was determined in mice after ip administration of 10 mg/kg. The following applies: route intraperitoneal.
Assay [7] is filed under the species Mus musculus. Description: Effective dose required to obtain a parasitaemia of 40% 48 hours after treatment in mice.
The subject of assay [8] is Mus musculus. Put plainly: Antimalarial activity was evaluated against Plasmodium vinckei vinckei V52 after intraperitoneal administration at dose 70 mg/kg.
The test system of assay [9] is Mus musculus. Put plainly: Antimalarial activity was evaluated against Plasmodium vinckei V52 after intraperitoneal administration at dose 20 mg/kg.
For assay [10], the system named is Mus musculus. Put plainly: Increase in mean survival days was determined in mice after ip administration of 20 mg/kg. Particulars: route intraperitoneal.
The test system of assay [11] is Mus musculus. Description: Increase in mean survival days was determined in mice after ip administration of 30 mg/kg. Particulars: route intraperitoneal.
For assay [12], the system named is Mus musculus. Description: Increase in mean survival days was determined in mice after ip administration of 60 mg/kg. The following applies: route intraperitoneal.
The species named for assay [13] is Mus musculus. Description: Effective dose required to obtain a parasitaemia of 40% 48 hours after treatment in mice.
Assay [14] deals with Plasmodium vinckei vinckei. Description: Antimalarial activity against Plasmodium vinckei vinckeii V52 at 20 mg/kg intraperitoneally dose. Particulars: route intraperitoneal.
The subject of assay [15] is Plasmodium vinckei vinckei. Description: Antimalarial activity against Plasmodium vinckei vinckeii V52 at 15 mg/kg intraperitoneally dose. The following applies: route intraperitoneal.
For assay [16], the system named is Mus musculus. Description: Antimalarial activity was evaluated against Plasmodium vinckei vinckeii V52 after intraperitoneal administration at dose 25 mg/kg.
Assay [17] relates to Plasmodium vinckei vinckei. Description: Antimalarial activity against Plasmodium vinckei vinckeii V52 after 10 mg/kg intraperitoneally dose. The following applies: route intraperitoneal.
Assay [18] relates to Mus musculus. Put plainly: Antimalarial activity was evaluated against Plasmodium vinckei V52 after intraperitoneal administration at dose 70 mg/kg.
Assay [19] deals with Mus musculus. Description: Antimalarial activity was evaluated against Plasmodium vinckei vinckeii V52 after intraperitoneal administration at dose 50 mg/kg.
Assay [20] relates to Mus musculus. Description: Antimalarial activity was evaluated against Plasmodium vinckei vinckei V52 after intraperitoneal administration at dose 40 mg/kg.
In assay [21] the test system is Mus musculus. Description: Antimalarial activity was evaluated against Plasmodium vinckei V52 after intraperitoneal administration at dose 15 mg/kg.
The subject of assay [22] is Plasmodium vinckei vinckei. Description: Antimalarial activity against Plasmodium vinckei V52 on 10 mg/kg intraperitoneal dose.
Assay [23] relates to Mus musculus. Description: Antimalarial activity was evaluated against Plasmodium vinckei vinckei V52 after intraperitoneal administration at dose 25 mg/kg.
Assay [24] has as its system Mus musculus. Put plainly: Increase in mean survival days was determined in mice after ip administration of 60 mg/kg; toxic. The following applies: route intraperitoneal.
Assay [25] has as its system Mus musculus. Description: Antimalarial activity was evaluated against Plasmodium vinckei vinckei V52 after intraperitoneal administration at dose 60 mg/kg.
In assay [26] the test system is Mus musculus. Put plainly: Antimalarial activity was evaluated against Plasmodium vinckei vinckei V52 after intraperitoneal administration at dose 30 mg/kg.
Assay [27] relates to Mus musculus. Description: Increase in mean survival days was determined in mice after ip administration of 15 mg/kg. Particulars: route intraperitoneal.

This is an account of results in ChEMBL document CHEMBL1125711, “Flavins as potential antimalarials. 2. 3-Methyl-10-(substituted-phenyl) flavins” (J Med Chem, 1991).

Regarding `Cc1ccc(-n2c3nc(=O)n(C)c(=O)c-3nc3ccccc32)cc1C`, the Cured stood at 0% in assay [1]; 60% in assay [2]; 0% in assay [3]; 20% in assay [4]; 100% in assay [8]; 0% in assay [9]. Besides, the Mean survival days is 0.3 days in assay [5]; 0.3 days in assay [6]; 0.2 days in assay [10]; 0.8 days in assay [11]; 0.5 days in [12]. The compound further showed an ED40 in [7] of 210 µmol/kg.
Turning to `Cn1c(=O)nc2n(-c3ccc(Br)cc3)c3ccccc3nc-2c1=O`, the Cured in assay [1] stood at 100%; in assay [14], 100%; in [15], 100%; in assay [16], 100%; in assay [17], 0%; in assay [18] it was 0%. Besides, the Cured in [19] amounted to 40%. Besides, the ED40 in assay [13] worked out at 38.4 µmol/kg.
For the compound `Cc1cc(C)cc(-n2c3nc(=O)n(C)c(=O)c-3nc3ccccc32)c1`, the ED40 in [13] is 105 µmol/kg. The Cured in assay [4] was 60%; in [20], 100%; in [21], 60%; in assay [22], 0%; in assay [23], 100%; in [9] it was 100%. Further, the values for the Cured in [25] and in assay [26] were 0% and 100%, respectively. For the same compound, the Mean survival days in assay [5] is 5.5 days; in assay [6] it was 0 days; in [24], 0.4 days; in assay [27], 1 days.
